Patent US20030022932A1, “Methods for regulating bacteria” (priority 2001, published 2003)

System: Pseudomonas aeruginosa
Assay: agar bead model of rat chronic respiratory infection (quantitative lung pathology, histopathology)
Type: in vivo
Details: 7 days post-infection
Procedure: The following Examples illustrate the effect of normal flora and the presence of autoinducer-2 (AI-2) on Pseudomonas aeruginosa infection in the agar bead model of rat chronic respiratory infection. Groups of 15 rats (male Sprague-Dawley 180-200 grams) were inoculated intratracheally with 0.05 mL suspensions of bacteria embedded in agar beads. Seven days post-infection each group was treated as follows: (1) five rats—lungs removed for quantitative microbiology; (2) five rats—bronchoaveolar lavage (BAL) were obtained and analyzed for total cell counts, neutrophils, neutrophil elastase and AI-2 activity; and (3) five rats—lungs removed for histology (quantitative pathology). In the microphotographs shown in FIGS. 4-7, the dark areas indicate regions of consolidation, an indication of tissue damage. An α-hemolytic Streptococcus isolate (designated CFX5) from a cystic fibrosis patient was used to supply naturally synthesized AI-2 in vivo.
Rats inoculated with agar beads containing Pseudomonas aeruginosa alone yielded the quantitative pathology shown in FIG. 3 (PAO), and the histopathology shown in the microphotograph of FIG. 4
Rats inoculated with agar beads containing Pseudomonas aeruginosa alone and exposed to synthetic AI-2 yielded the quantitative pathology shown in FIG. 3 (PAO/AI-2), and the histopathology shown in FIG. 5.
Rats inoculated with agar beads containing Pseudomonas aeruginosa +α-hemolytic Streptococcus (CFX5) yielded the quantitative pathology shown in FIG. 3 (PAO/NF), and the histopathology shown in FIG. 6.
Rats inoculated with agar beads containing Pseudomonas aeruginosa +α-hemolytic Streptococcus (CFX5), treated daily for six days with aerosolized QXO18 (2-pentyl-2-cyclopenten-1-one), an AI-2 antagonist, yielded the quantitative pathology shown in FIG. 3 (PAO/NF/QXO18), and the histopathology shown in FIG. 7.

Row | Compound | lung pathology caused by Pseudomonas aeruginosa (percent of lung tissue showing consolidation) (Pseudomonas aeruginosa + α-hemolytic Streptococcus (CFX5), treated daily for six days with aerosolized compound, PAO/NF/QXO18 vs PAO/NF) | lung pathology caused by Pseudomonas aeruginosa (percent of lung tissue showing consolidation) (AI-2 supplied endogenously by co-infecting α-hemolytic Streptococcus isolate CFX5, PAO/NF) | lung pathology caused by Pseudomonas aeruginosa (percent of lung tissue showing consolidation) (rats inoculated with Pseudomonas aeruginosa alone, exposed to synthetic (exogenously supplied) AI-2, PAO/AI-2 vs PAO)
1 | CCCCCC1=CCCC1=O [2-pentyl-2-cyclopenten-1-one] | greatly diminishes the increased lung pathology | – | –
2 | autoinducer-2 [AI-2] | – | increases the lung pathology even more | increases the lung pathology
